{"source": "patent US20260146029A1", "about": "“METHODS FOR THE TREATMENT OR PROPHYLAXIS OF ENDOMETRIOSIS” (Gesynta Pharma AB, priority 2022, published 2026)", "key": {"[1]": {"test_system": "Marmoset monkeys (Callithrix jacchus), established endometriosis", "test": "General health status: clinical signs and blood chemistry", "type": "in vivo", "conditions": "oral 6.67 mg/kg twice/day for 6 weeks", "protocol": "(§1) All animals were weighed weekly before and during the treatment. Health body checks including clinical signs as well as blood chemistry analysis were carried out in a regular manner by the responsible vet."}, "[2]": {"test_system": "Marmoset monkeys (Callithrix jacchus), established endometriosis", "test": "Laparotomy assessment of endometriotic lesions (number and size of foci)", "type": "in vivo", "protocol": "(§2) The substance as depicted below (prepared according to the procedure in WO 2012/022793 A1) was orally administered (as the hydrogen sulphate salt thereof) for 6 weeks to common marmoset monkeys at a dose of 6.67 mg/kg twice/day (calculated based on the free base, with the actual weight of compound administered calculated as required for the hydrogen sulphate salt).\n(§3) The age of the marmosets ranged between 3 and 16 years. All animals were female and had established endometriosis over years. Induction of endometriosis was performed as described in Einspanier et al., Mol Human Reprod., 12(5), 291-9 (2006).\nLaparotomy was carried out twice, seven weeks before treatment start of treatment and immediately after end of treatment. There was a duration of at least 3 months between each laparotomy.\nAfter pre-medication with Göttinger Mischung M II (Ketamin, Xylazin and Atropin mixture), an inhalation anaesthesia with Isofluran was carried out which last in average 60 minutes. The abdomen was opened beside line alba for 1 cm range to visualise the reproductive tract and bladder. The endometriotic lesions were characterized and documented in pictures. During the second laparoptomy samples from the lesions were collected. Postoperative care of the animals was carried out as required by local law. The collected tissue samples were fixed in paraformaldehyde and embedded in paraffin or stored at −80° C. Before abdominal suture, all organs were replaced in their place. All females were separated from their males for some hours due to medical reasons and obtained antibiotics for some days.\nLaparotomy analysis was performed to assess endometriotic lesions."}, "[3]": {"test_system": "Marmoset monkeys (Callithrix jacchus), established endometriosis", "test": "Wisconsin General Testing Apparatus (WGTA) memory and learning test", "type": "in vivo", "conditions": "during the treatment, all females", "description": "(§4) Different behavioural test systems were used to study pain and discomfort, social comfort, memory, learning and activity were set up. All primates used in the study were familiar with the test-systems (for a period of more than 6 months) to confirm that the obtained results are related to the medication and not a learning effect over time.\n(§5) Two test systems were used in the study as described in Arnold et al., J Med Primatol., 40, 317-326 (2011). • 1. Feeding tree • 2. Wisconsin General Testing apparatus (WGTA) Before and during the study documentation of social interaction, such as grooming, were performed.\nMemory and learning of the primates were tested. All animals are train-rewarded for the WGTA. The animal, which is sitting in the transport box, is either trained for special figures or places, which hide the reward. The observer can watch the behaviour of the animal, but the animal cannot see the observer.\nThe 8 animals were tested in the WGTA for memory by remembering either the figure or location of the hidden reward. Wellbeing of a primate is associated with willingness to search for food, which is also included by this test system. The animals have to find the reward underneath the three different figures three times within 5 minutes. Each animal is either trained for the location of the figure or figure itself."}, "[4]": {"test_system": "Marmoset monkeys (Callithrix jacchus), established endometriosis", "test": "Reproductive cycle monitoring by serum progesterone", "type": "in vivo", "conditions": "after treatment", "protocol": "For analysis of serum progesterone concentration to monitor the reproductive cycle, blood was collected weekly before and during treatment. Serum was separated from blood samples by centrifugation (2600 rpm 10 min, Eppendorf Centrifuge 5810 R) within two hours of sampling and stored at minus 80° C."}, "[5]": {"test_system": "Marmoset monkeys (Callithrix jacchus), established endometriosis", "test": "Feeding tree behaviour test", "type": "in vivo", "conditions": "during treatment, all animals", "description": "as §4, §5\nThe feeding tree was to test movement activity associated with pain, discomfort and/or distress. The feeding tree offers food at different positions to reach, which requires different levels of movement. If an animal has discomfort, distress or abdominal pain it will not search for food at upper areas or at all. Moreover, systematic search is reduced if memory is impaired. In the setting, each primate had to empty every reward-containing hideouts within 5 minutes to be fully successful. The response of the 8 animals was graded before, during and after treatment on a scale of 0-4 indicting the number of hideouts emptied within 5 minutes."}, "[6]": {"test": "Body weight (weighed weekly)", "type": "in vivo, Marmoset monkeys (Callithrix jacchus)", "conditions": "during the treatment period; oral 6.67 mg/kg twice/day for 6 weeks", "protocol": "as §1"}, "[7]": {"test_system": "Marmoset monkeys (Callithrix jacchus), established endometriosis", "test": "Colour Doppler ultrasonic scanning of blood flow (bladder area, reproductive tract area)", "type": "in vivo", "parameters": "key to Individual data on blood flow bladder / Individual data on blood flow repro tract: 0=blood flow not visible; 1=weak blood flow; 2=medium blood flow; 3=massive blood flow", "conditions": "for Individual data on blood flow bladder / Individual data on blood flow repro tract: individual animals 1-8 (one line each), 6.67 mg/kg; for Individual data on blood flow bladder / Individual data on blood flow repro tract / Blood flow bladder, median score / Blood flow repro tract, median score: oral 6.67 mg/kg twice/day; for Blood flow bladder, median score / Blood flow repro tract, median score: median of 8 animals, scale 0-3, baseline median 2", "protocol": "as §2, §3\nColour Doppler ultrasonic scanning was done before and 3 times during the treatment period to follow blood flow. Colour doppler scanning was carried out as described by Einspanier (ibid).\nColour Doppler ultrasonic scanning was performed to measure blood flow in the reproductive tract (uterus and ovaries) area as well as in the bladder area.\nIndividual blood flow measurements are provided in Table 1, 0=blood flow not visible, 1=weak blood flow, 2=medium blood flow and 3=massive blood flow."}, "[8]": {"test_system": "Marmoset monkeys (Callithrix jacchus), established endometriosis", "test": "Social interaction (grooming) observation", "type": "in vivo", "conditions": "during treatment compared to before treatment, all animals", "protocol": "as §5\nThe documentation of grooming was carried out by daytime observation. These behaviour observations give information about wellbeing, while grooming is a marker for positive social activity. The social grooming was documented 1 h after breakfast and 1 h after lunch by observing the couples each time for 10 minutes. For each animal, the number of grooming interactions in the observed period was recorded."}, "[9]": {"conditions": "Week 7 (EoT), individual animals 1-8 (one line each), oral 6.67 mg/kg twice/day for 6 weeks"}, "[10]": {"conditions": "Week 7 (EoT), individual animals 1-8 (one line each), oral 6.67 mg/kg twice/day for 6 weeks, 6.67 mg/kg"}}, "note": "Values joined by “and” are separate entries in the source; they are usually repeats but may differ in a detail not shown here. Equal entries are not always repeated.", "data": [{"smiles": "Cn1c(Nc2c(Cl)ccc(CNC(=O)C(C)(C)C)c2Cl)nc2cc(C(=O)N[C@H]3CC[C@H](C(F)(F)F)CC3)c(OCC(F)F)cc21", "note": "[compound of formula I, 2-{2,6-dichloro-3-[(2,2-dimethyl-propionylamino)-methyl]-phenylamino}-6-(2,2-difluoroethoxy)-1-methyl-1H-benzoimidazole-5-carboxylic acid (trans-4-trifluoromethylcyclohexyl)-amide]", "values": [{"measurement": "Blood laboratory parameters", "setting": "[1]; before and after treatment", "result": "in the physiological range"}, {"measurement": "Clinical signs, general health behaviour of the study animals", "setting": "[1]; during the study period, 8 female marmosets", "result": "no changes"}, {"measurement": "Number of endometriotic lesions repro tract, lesion size 2-4 mm", "setting": "[2]; [9]", "result": 0}, {"measurement": "Number of endometriotic lesions repro tract, lesion size >4 mm", "setting": "[2]; [9]", "result": 0}, {"measurement": "Number of endometriotic lesions on the bladder, Total", "setting": "[2]; [10]", "result": "4 (2×) and 14 and 24 and 7 and 12 and 5 and 10"}, {"measurement": "Number of endometriotic lesions on the bladder, lesion size 2-4 mm", "setting": "[2]; [10]", "result": "0 (6×) and 3 and 5"}, {"measurement": "Number of endometriotic lesions on the bladder, lesion size <2 mm", "setting": "[2]; [10]", "result": "0 (4×) and 5 and 12 and 4 and 7"}, {"measurement": "Number of endometriotic lesions on the bladder, lesion size >4 mm", "setting": "[2]; [10]", "result": "0 (6×) and 3 and 2"}, {"measurement": "Number of endometriotic lesions on the bladder, lesion size s.p. (visible but not measurable)", "setting": "[2]; [10]", "result": "4 and 2 and 5 (2×) and 7 and 0 and 12 and 3"}, {"measurement": "Number of endometriotic lesions repro tract, Total", "setting": "[2]; [10]", "result": "0 (2×) and 3 (2×) and 8 and 2 (2×) and 4"}, {"measurement": "Number of endometriotic lesions repro tract, lesion size <2 mm", "setting": "[2]; [10]", "result": "0 (5×) and 2 (2×) and 4"}, {"measurement": "Number of endometriotic lesions repro tract, lesion size s.p. (visible but not measurable)", "setting": "[2]; [10]", "result": "0 (2×) and 1 and 4 and 3 and 2 (3×)"}, {"measurement": "Endometric foci at laparotomy, result in words", "setting": "[2]; all animals, all sizes of foci affected, after 6 weeks of treatment", "result": "Pronounced reduction"}, {"measurement": "WGTA success rate of correct figure or location within time", "setting": "[3]", "result": "increased success rate"}, {"measurement": "Animals showing irregular cycles", "setting": "[4]; of 8 animals, before therapy 5 irregular cycles and 1 no activity", "result": 2, "unit": "animals"}, {"measurement": "Animals showing ovarian cycle activity", "setting": "[4]; before therapy 2 of 8 animals showed ovarian cycle activity", "result": "6 out of 8"}, {"measurement": "Success rate in the feeding tree (hideouts emptied within 5 minutes, scale 0-4)", "setting": "[5]", "result": "improved"}, {"measurement": "Change in body weight", "setting": "[6]", "result": "no significant change"}, {"measurement": "Individual data on blood flow bladder", "setting": "[7]; Week 1", "result": "3 (3×) and 2 (3×) and 1 (2×)"}, {"measurement": "Individual data on blood flow repro tract", "setting": "[7]; Week 1", "result": "3 and 2 (5×) and 1 (2×)"}, {"measurement": "Blood flow bladder, median score", "setting": "[7]; Week 1", "result": 2}, {"measurement": "Blood flow repro tract, median score", "setting": "[7]; Week 1", "result": 2}, {"measurement": "Individual data on blood flow bladder", "setting": "[7]; Week 4", "result": "3 and 2 (3×) and 1 (4×)"}, {"measurement": "Individual data on blood flow repro tract", "setting": "[7]; Week 4", "result": "2 (3×) and 1 (4×) and 0"}, {"measurement": "Blood flow bladder, median score", "setting": "[7]; Week 4", "result": 1.5}, {"measurement": "Blood flow repro tract, median score", "setting": "[7]; Week 4", "result": 1}, {"measurement": "Individual data on blood flow bladder", "setting": "[7]; Week 6", "result": "2 and 1 (7×)"}, {"measurement": "Individual data on blood flow repro tract", "setting": "[7]; Week 6", "result": "2 (3×) and 1 (3×) and 0 (2×)"}, {"measurement": "Blood flow in reproductive tract (uterus and ovaries) area and bladder area, result in words", "setting": "[7]; all animals, both areas, oral 6.67 mg/kg twice/day for 6 weeks", "result": "Decreased blood flow"}, {"measurement": "Grooming interactions", "setting": "[8]", "result": "increased"}]}]}
